Here are results for one compound from patent publication US20220348590A1, “CYCLOOXYGENASE-2 INHIBITORS AND USES THEREOF” (The Board Institute, Inc., priority 2019, published 2022).

This test has as its target T1, COX2 (Rattus norvegicus, UniProt P35355).
T1 construct: in-vitro autoradiography in rat brain slices; from tissue; host or cells: rat brain slices
T1 sequence (P35355 18-604): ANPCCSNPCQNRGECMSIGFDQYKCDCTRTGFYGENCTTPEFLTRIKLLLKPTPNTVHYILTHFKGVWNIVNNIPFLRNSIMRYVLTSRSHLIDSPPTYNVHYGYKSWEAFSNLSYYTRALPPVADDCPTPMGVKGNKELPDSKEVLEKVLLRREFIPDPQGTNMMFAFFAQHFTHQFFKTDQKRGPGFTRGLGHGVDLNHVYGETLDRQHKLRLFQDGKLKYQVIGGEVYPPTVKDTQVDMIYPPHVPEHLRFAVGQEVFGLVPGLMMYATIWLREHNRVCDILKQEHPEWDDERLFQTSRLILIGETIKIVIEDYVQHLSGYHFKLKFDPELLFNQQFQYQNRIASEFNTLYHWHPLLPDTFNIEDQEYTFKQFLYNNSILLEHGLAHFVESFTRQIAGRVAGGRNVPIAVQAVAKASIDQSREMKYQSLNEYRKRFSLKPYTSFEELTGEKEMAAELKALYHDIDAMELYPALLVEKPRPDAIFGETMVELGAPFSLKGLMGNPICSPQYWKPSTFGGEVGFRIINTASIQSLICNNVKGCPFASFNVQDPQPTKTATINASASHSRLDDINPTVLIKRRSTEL
Description: in-vitro autoradiography in rat brain slices (self-block). The class given is binding. An excerpt:
Three ligands have been evaluated with in-vitro autoradiography in rat brain slices. Radiolabeling was accomplished via methylation of either a sulfinate precursor ([^11C]Rofecoxib), hydroxyl precursor ([^11C]MC1) or thiol precursor ([^11C]98) using [^11C]-methyl iodide and offers chemical flexibility for radiolabeling of future candidates. […] This translated into a ˜2-fold increase in COX2 specific binding in a rat brain slice in-vitro autoradiography. […] These properties enable us to better understand the contribution of potency and free fraction to the ligand's specific binding.
Three newly synthesized COX2 ligands were successfully radiolabeled using this strategy and first evaluated by in-vitro autoradiography in rat brain slices using self-block experiments (FIG. 5). […] [^11C]36 was also evaluated for specific binding using self-block experiments in human post-mortem brain tissues (globus pallidus) from three Huntington's disease (HD) patients (FIG. 6). COX2 protein levels were quantified using immunostaining and defined as high, medium and low, respectively.

In the case of `CS(=O)(=O)c1ccc(-c2cncc(NCc3cccs3)n2)cc1` [Compound 98], for the setting “rat brain slice in-vitro autoradiography, compared to MC1”, the “increase in COX2 specific binding” value was approximately 2 fold. Moreover, the specific binding entry (rat brain slices in vitro autoradiography, self-block, compared to earlier tracers) is “increase in specific binding”.
